In patent publication US20250161263A1, “USE OF A COMPOUND, PHARMACEUTICAL FORMULATION, METHOD OF TREATMENT FOR ASTHMA AND/OR COPD, AND COMPOUND” (FUNDAÇÃO OSWALDO CRUZ, priority 2022, published 2025):
“Also recorded” adds a separate entry of the source.

Columns and labels:
Format in all cases: in vivo, mice (BALB/c)
IL-4 = IL-4 in bronchoalveolar lavage by ELISA, airway hypersensitivity model; settings: p<0.05
Description: (§1) The ovalbumin-induced airway hypersensitivity model (BOLANDI et al., 2021), used as the basis for the present findings, induces pathophysiological and structural changes which characterize respiratory diseases such as asthma and chronic obstructive pulmonary disease (COPD).
(§2) The mice were divided into groups of six animals and immunized with a subcutaneous injection of 10 μg of ovalbumin (Sigma, St. Louis, MO) diluted in 2 mg/ml alum (Alunmlmject; Pierce, Rockford, IL), followed by of a booster injection 14 days later. From day 28 onwards, the mice were placed in an acrylic box and subjected to inhalation exposure to ovalbumin (1%) for 15 minutes per day, for five consecutive days. The ovalbumin solution was nebulized using an ultrasonic inhaler (RespiraMax, Brazil). […]
The animals were euthanized with a lethal dose of ketamine and xylazine (300 mg/Kg and 30 mg/Kg, respectively via i.p.) 24 hours after the last challenge to collect bronchoalveolar lavage (BAL). […] The first wash was centrifuged and the supernatant stored at −70° C. for subsequent quantification of cytokines by ELISA. […]
(§3) The bronchoalveolar lavage supernatant stored at −70° C. was thawed and used to quantify the cytokines IL-4, IL-5 and IL-13 by the ELISA method, using specific kits (R&D System, Minnesota, MN, USA) for mice, following the manufacturer's instructions (VASCONCELOS, 2009).

[1] = tested on: total inflammatory cells in bronchoalveolar lavage (airway hypersensitivity model in mice); assay: Total inflammatory cell count in bronchoalveolar lavage, ovalbumin-induced airway hypersensitivity model; settings: vs vehicle
Description: as §1
as §2, with “Brazil). The protocol used to induce airway hypersensitivity was performed as previously described (POSSA, 2013). The naive group was challenged with saline only.” for “Brazil).”
(§4) The animals were euthanized with a lethal dose of ketamine and xylazine (300 mg/Kg and 30 mg/Kg, respectively via i.p.) 24 hours after the last challenge to collect bronchoalveolar lavage (BAL). Intratracheal instillation of 1 ml of ice-cold PBS was performed, followed by BAL collection, and this procedure was repeated. The first wash was centrifuged and the supernatant stored at −70° C. for subsequent quantification of cytokines by ELISA. The second wash was centrifuged, the supernatant was discarded and the pellets were resuspended in 1 ml of saline to count total leukocytes using a Neubauer chamber. To carry out the differential cell count, 10,000 cells were collected from the previous resuspension, centrifuged in Cytospin® and stained with hematoxylin and eosin (VASCONCELOS, 2009).

[2] = tested on: eosinophils, neutrophils and mononuclear cells in bronchoalveolar lavage; assay: Differential count of eosinophils, neutrophils and mononuclear cells in bronchoalveolar lavage, airway hypersensitivity model; settings: 50 mg/Kg by inhalation
Description: as §1
(§5) The mice were divided into groups of six animals and immunized with a subcutaneous injection of 10 μg of ovalbumin (Sigma, St. Louis, MO) diluted in 2 mg/ml alum (Alunmlmject; Pierce, Rockford, IL), followed by of a booster injection 14 days later. From day 28 onwards, the mice were placed in an acrylic box and subjected to inhalation exposure to ovalbumin (1%) for 15 minutes per day, for five consecutive days. The ovalbumin solution was nebulized using an ultrasonic inhaler (RespiraMax, Brazil). The protocol used to induce airway hypersensitivity was performed as previously described (POSSA, 2013). The naive group was challenged with saline only. To carry out the treatments, two hours before each challenge via inhalation, the mice were treated with braylin ([…] and 12.5 mg/kg, via inhalation), dexamethasone (30 mg/kg via intraperitoneal) or vehicle (10% propylene glycol in saline, inhaled).
as §4

IL-5 = IL-5 in bronchoalveolar lavage by ELISA, airway hypersensitivity model
Description: as §1, §5
as §4, with “To carry out the differential cell count, 10,000 cells were collected from the previous resuspension, centrifuged in Cytospin® and stained with hematoxylin and eosin (VASCONCELOS, 2009).” left out
as §3

[3] = tested on: PAS-labeled mucus-producing goblet cells of the bronchiolar epithelium; assay: Goblet cell metaplasia / mucus production, PAS-stained lung sections, airway hypersensitivity model; settings: braylin treatment (FIG. 5: 50 mg/kg/in), p<0.05
Description: as §1, §2
After collecting the bronchoalveolar lavage, lung perfusion was performed intratracheally with 1 ml formalin (4%) and, subsequently, the right lobe of the lungs of each animal was removed and fixed in the same solution for histological and morphometric analysis. The sections were stained with hematoxylin and eosin to quantify inflammatory cells by optical microscopy according to the number of cores present in the fields with the largest population of cells. To quantify mucus production, staining was performed with periodic acid-Schiff (PAS) and the marked areas were quantified. […]

IL-13 = IL-13 in bronchoalveolar lavage by ELISA, airway hypersensitivity model
Description: as §1, §5
as §4, with “To carry out the differential cell count, 10,000 cells were collected from the previous resuspension, centrifuged in Cytospin® and stained with hematoxylin and eosin (VASCONCELOS, 2009).” left out
as §3

[4] = tested on: inflammatory cells in lung tissue; assay: Pulmonary inflammatory infiltrate, HE-stained lung sections, airway hypersensitivity model; settings: 50 mg/kg inhaled, vs vehicle, p<0.05
Description: The mice were divided into groups of six animals and immunized with a subcutaneous injection of 10 μg of ovalbumin (Sigma, St. Louis, MO) diluted in 2 mg/ml alum (Alunmlmject; Pierce, Rockford, IL), followed by of a booster injection 14 days later. From day 28 onwards, the mice were placed in an acrylic box and subjected to inhalation exposure to ovalbumin (1%) for 15 minutes per day, for five consecutive days. The ovalbumin solution was nebulized using an ultrasonic inhaler (RespiraMax, Brazil). […] The naive group was challenged with saline only.
After collecting the bronchoalveolar lavage, lung perfusion was performed intratracheally with 1 ml formalin (4%) and, subsequently, the right lobe of the lungs of each animal was removed and fixed in the same solution for histological and morphometric analysis. The sections were stained with hematoxylin and eosin to quantify inflammatory cells by optical microscopy according to the number of cores present in the fields with the largest population of cells. […] 10 fields (400×) per animal were analyzed for a total of 5 animals, and the data were used to calculate the average number of cells per mm^2, or the area stained with PAS. The program used to assist in cell counting and area determination was Image-Pro PLUS, version 4.5 (Media Cybernetics, Silver Spring, USA).

COc1cc2ccc(=O)oc2c2c1OC(C)(C)C=C2 [braylin]
level of IL-4 in BAL (IL-4; 25 mg/kg inhaled): reduced
level of IL-4 in BAL (IL-4; 50 mg/kg inhaled): reduced
number of inflammatory cells in the BAL ([1]; 12.5 mg/kg by inhalation): no effect
number of inflammatory cells in the BAL ([1]; 25 mg/kg by inhalation, p<0.05): reduced
number of inflammatory cells in the BAL ([1]; 50 mg/kg by inhalation, 5 consecutive days, p<0.05): significantly lower; also recorded: reduced
number of inflammatory cells in the BAL ([1]; 50 mg/kg intraperitoneally, 5 consecutive days, p<0.05): significantly lower
number of inflammatory cells in the BAL ([1]; 100 mg/kg by inhalation, p<0.05): reduced
quantity of mononuclear cells in BAL ([2]; compared with naive group): approached the values found in mice in the naive group
amount of eosinophils present in BAL ([2]; vs vehicle, p<0.05): reduced
amount of neutrophils present in BAL ([2]; vs vehicle, p<0.05): reduced
level of IL-5 in BAL (IL-5; 12.5 mg/kg inhaled): significant reduction
level of IL-5 in BAL (IL-5; 25 mg/kg inhaled, p<0.05): reduced
level of IL-5 in BAL (IL-5; 50 mg/kg inhaled, p<0.05): reduced
Goblet cell labeling (PAS) in the bronchiolar epithelium, mucus production [3]: reduced
level of IL-13 in BAL (IL-13; 12.5 mg/kg inhaled): significant reduction
level of IL-13 in BAL (IL-13; 25 mg/kg inhaled, p<0.05): reduced
level of IL-13 in BAL (IL-13; 50 mg/kg inhaled, p<0.05): reduced
lung inflammation, presence of inflammatory cells in HE-stained lung [4]: reduction in lung inflammation
